Patent publication US7795299B2, “Neo-tanshinlactone and analogs as potent and selective anti-breast cancer agents” (The University of North Carolina at Chapel Hill, priority 2004, dated 2010)
Values after ≈ are worked out from the molar mass of the structure shown. Values joined by “and” are separate entries in the source; they are usually repeats but may differ in a detail not shown here. Identical values can stand only once.

Experiments:
[1] = test system: MCF-7 (estrogen receptor positive breast cancer); assay: In vitro anticancer assay (SRB), MCF-7; type: cell-based, human; conditions: for ED50, MCF-7 (ER+): concentration that reduces cell growth by 50%, 3 days in culture, SRB
Description: (§1) All stock cultures were grown in T-25 flasks. Freshly trypsinized cell suspensions were seeded in 96-well microtiter plates at densities of 1500-7500 cells per well with compounds added from DMSO-diluted stock. After 3 days in culture, attached cells were fixed with cold 50% trichloroacetic acid and then stained with 0.4% sulforhodamine B (SRB). The absorbency at 562 nm was measured using a microplate reader after solubilizing the bound dye.
(§2) Biological assay. All stock cultures are grown in T-25 flasks. Freshly trypsinized cell suspensions were seeded in 96-well microtitre plates at densities of 1500-7500 cells per well with compounds added from DMSO-diluted stock. After 3 days in culture, attached cells were fixed with cold 50% trichloroacetic acid and then stained with 0.4% sulforhodamine B (SRB). The absorbency at 562 nm was measured using a microplate reader after solubilizing the bound dye.

[2] = test system: MDA-MB-231 (estrogen receptor negative breast cancer); assay: In vitro anticancer assay (SRB), MDA-MB-231; type: cell-based, human; conditions: for ED50, MDA-MB-231 (ER−): concentration that reduces cell growth by 50%, 3 days in culture, SRB
Description: as §1, §2

[3] = test system: ZR-75-1 (estrogen receptor positive breast cancer); assay: In vitro anticancer assay (SRB), ZR-75-1; type: cell-based, human; conditions: concentration that reduces cell growth by 50%, 3 days in culture
Description: as §1, §2

[4] = test system: HS 587-T (estrogen receptor negative breast cancer); assay: In vitro anticancer assay (SRB), HS 587-T; type: cell-based, human; conditions: concentration that reduces cell growth by 50%, 3 days in culture, printed HS587-1 in Table 4
Description: as §1, §2

[5] = test system: SK-BR-3 (HER-2-overexpressing breast cancer); assay: In vitro anticancer assay (SRB), SK-BR-3; type: cell-based, human
Description: (§3) In Vitro Anticancer Assay (Nakanishi, Y. et al., J. Med. Chem. 2003, 46, 3185). All stock cultures were grown in T-25 flasks. Freshly trypsinized cell suspensions were seeded in 96-well microtiter plates at densities of 1500-7500 cells per well with compounds added from DMSO-diluted stock. After 3 days in culture, attached cells were fixed with cold 50% trichloroacetic acid and then stained with 0.4% sulforhodamine B (SRB). The absorbency at 562 nm was measured using a microplate reader after solubilizing the bound dye. The mean ED50 is the concentration of agent that reduces cell growth by 50% under the experimental conditions and is the average from at least three independent determinations that were reproducible and statistically significant (FIG. 2). The following human tumor cell lines were used in the assay: A549 (non small cell lung cancer), MCF-7 (estrogen receptor positive breast cancer), ZR-75-1 (estrogen receptor positive breast cancer), MDA-MB-231 (estrogen receptor negative breast cancer), HS 587-T (estrogen receptor negative breast cancer), SK− BR-3 (HER-2-overexpressing breast cancer), A431 (EGFRoverexpressing skin cancer), LN-CaP (AR-dependent prostate cancer), SW620 (colon cancer), PC-3 (prostate cancer), KB (nasopharyngeal carcinoma), KB-VIN (vincristine-resistant KB subline). All cell lines were obtained from the Lineberger Comprehensive Cancer Center (UNC-CH) or from ATCC (Rockville, Md.) and were cultured in RPMI-1640 medium supplemented with 25 mMHEPES, 0.25% sodium bicarbonate, 10% fetal bovine serum, and 100 μg/mL kanamycin.
(§4) Biological assay. All stock cultures are grown in T-25 flasks. Freshly trypsinized cell suspensions were seeded in 96-well microtitre plates at densities of 1500-7500 cells per well with compounds added from DMSO-diluted stock. After 3 days in culture, attached cells were fixed with cold 50% trichloroacetic acid and then stained with 0.4% sulforhodamine B (SRB). The absorbency at 562 nm was measured using a microplate reader after solubilizing the bound dye. The mean ED50 is the concentration of agent that reduces cell growth by 50% under the experimental conditions and is the average from at least three independent determinations that were reproducible and statistically significant. The following human tumor cell lines were used in the assay: A549 (non-small cell lung cancer), MCF-7 (estrogen receptor positive breast cancer), ZR-75-1 (estrogen receptor positive breast cancer), MDA MB-231 (estrogen receptor negative breast cancer), HS 587-T (estrogen receptor negative breast cancer), SK-BR-3 (estrogen receptor negative, HER-2 over-expressing breast cancer), A431 (EGFR over-expressing skin cancer), LN-CaP (AR-dependent prostate cancer), SW620 (colon cancer), PC-3 (prostate cancer), KB (nasopharyngeal carcinoma), KB-VIN (Vincristine resistant KB subline). All cell lines were obtained from the Lineberg Cancer Center (UNC-CH) or from ATCC (Rockville, Md.) and were cultured in RPMI-1640 medium supplemented with 25 mM HEPES, 0.25% sodium bicarbonate, 10% fetal bovine serum, and 100 μg/mL kanamycin.

[6] = test system: A431 (EGFR over-expressing skin cancer); assay: In vitro anticancer assay (SRB), A431; type: cell-based, human
Description: as §3, §4

[7] = test system: LN-CaP (AR-dependent prostate cancer); assay: In vitro anticancer assay (SRB), LN-CaP; type: cell-based, human
Description: as §3
as §2, with “dye. The mean ED50 is the concentration of agent that reduces cell growth by 50% under the experimental conditions and is the average from at least three independent determinations that were reproducible and statistically significant. […]” for “dye.”

[8] = test system: SW620 (colon cancer); assay: In vitro anticancer assay (SRB), SW620; type: cell-based, human
Description: as §3, §4

[9] = test system: PC-3 (prostate cancer); assay: In vitro anticancer assay (SRB), PC-3; type: cell-based, human; conditions: concentration that reduces cell growth by 50%, 3 days in culture
Description: as §1, with “In Vitro Anticancer Assay (Nakanishi, Y. et al., J. Med. Chem. 2003, 46, 3185). All” for “All”, “dye. The mean ED50 is the concentration of agent that reduces cell growth by 50% under the experimental conditions and is the average from at least three independent determinations that were reproducible and statistically significant (FIG. 2). […]” for “dye.”
(§5) Biological assay. […] The absorbency at 562 nm was measured using a microplate reader after solubilizing the bound dye. […]

[10] = test system: KB (nasopharyngeal carcinoma); assay: In vitro anticancer assay (SRB), KB; type: cell-based, human
Description: as §3, §4

[11] = test system: KB-VIN (vincristine-resistant KB subline); assay: In vitro anticancer assay (SRB), KB-VIN; type: cell-based, human
Description: as §3
(§6) Biological assay. All stock cultures are grown in T-25 flasks. Freshly trypsinized cell suspensions were seeded in 96-well microtitre plates at densities of 1500-7500 cells per well with compounds added from DMSO-diluted stock. After 3 days in culture, attached cells were fixed with cold 50% trichloroacetic acid and then stained with 0.4% sulforhodamine B (SRB). The absorbency at 562 nm was measured using a microplate reader after solubilizing the bound dye. […]

[12] = test system: A549 (non small cell lung cancer); assay: In vitro anticancer assay (SRB), A549; type: cell-based, human
Description: as §1, with “In Vitro Anticancer Assay (Nakanishi, Y. et al., J. Med. Chem. 2003, 46, 3185). All” for “All”, “dye. The mean ED50 is the concentration of agent that reduces cell growth by 50% under the experimental conditions and is the average from at least three independent determinations that were reproducible and statistically significant (FIG. 2). […]” for “dye.”
as §5

[13] = test system: several human cancer cell lines; assay: Cytotoxic activity against several human tumor cell lines (panel, overall statements); type: cell-based; conditions: at concentrations up to 10 μg/mL
Description: as §3, §6

[14] = test system: ER+ human breast cancer (MCF-7 and ZR-75-1); assay: Comparison of potency and selectivity against ER+ breast cancer cell lines in vitro; type: cell-based
Description: as §3
as §6, with “dye. The mean ED50 is the concentration of agent that reduces cell growth by 50% under the experimental conditions and is the average from at least three independent determinations that were reproducible and statistically significant.” for “dye.”

[15] = listed as Neo-tashinlactone (1)
[16] = concentration that reduces cell growth by 50%, 3 days in culture, SRB
[17] = against ER+ (ER+ and HER-2++) breast cancer in vitro

## Cc1cccc2c1ccc1c3occ(C)c3c(=O)oc21 [Compound 1, Neo-tanshinlactone]
[1]; at 2.5 μg/mL (Table 1)
  Percent inhibition at the test concentration (bracketed value), MCF-7: 57%
[1]
  ED50, MCF-7 (ER+): 0.6 µg/mL and 0.60 µg/mL
[1]; [15]
  ED50, MCF-7 (ER+): < 2.5 µg/mL
[1]; first screen, Example 1
  concentration at which active against MCF-7: 0.6˜1.2 μg/mL
[2]; at 20 μg/mL (Table 1)
  Percent inhibition at the test concentration (bracketed value), MDA-MB-231: 17%
[2]
  ED50, MDA-MB-231 (ER−): 10 µg/mL and 10.0 µg/mL
[2]; [15]
  ED50, MDA-MB-231 (ER−): > 20 µg/mL
[3]
  ED50, ZR-75-1 (ER+): 0.25 µg/mL (≈ 0.946 µM)
[4]
  ED50, HS 587-T (ER−): 16 µg/mL and 16.0 µg/mL
[5]; HER-2-overexpressing breast cancer cell line
  activity against SK-BR-3 (in words): active
[5]; [16]
  ED50, SK-BR-3 (ER−, HER2+): 0.2 µg/mL and 0.18 µg/mL
[5]; ratio of sensitivity of the two cell lines
  fold more sensitive, SK-BR-3 versus MCF-7: 3 fold
[6]; EGFR overexpressing skin cancer cell line
  activity against A431 (in words): essentially inactive
[6]; at 10 μg/mL (Table 2)
  Percent inhibition at the test concentration (bracketed value), A431: 35%
[6]; [16]
  ED50, A431: > 10 µg/mL
[7]; AR-dependent prostate cancer cell line
  activity against LN-CaP (in words): essentially inactive
[7]; at 10 μg/mL (Table 2)
  Percent inhibition at the test concentration (bracketed value), LN-CaP: 28-36%
[7]; [16]
  ED50, LN-CaP: > 10 µg/mL
[8]; at 10 μg/mL (Table 2)
  Percent inhibition at the test concentration (bracketed value), SW620: 22%
[8]; [16]
  ED50, SW620: > 10 µg/mL
[9]
  ED50, PC-3: 10 µg/mL (≈ 37.8 µM)
[10]; at 10 μg/mL (Table 2)
  Percent inhibition at the test concentration (bracketed value), KB: 18%
[10]; [16]
  ED50, KB: > 10 µg/mL
[11]; at 10 μg/mL (Table 2)
  Percent inhibition at the test concentration (bracketed value), KB-VIN: 9%
[11]; [16]
  ED50, KB-VIN: > 10 µg/mL
[12]; at 20 μg/mL (Table 1)
  Percent inhibition at the test concentration (bracketed value), A549: 10%
[12]; [16]
  ED50, A549: > 20 µg/mL
[13]
  activity against other cell lines in the panel (in words): insignificant activity
[14]; [17]
  fold more potent than tamoxifen citrate: 10 fold
  fold more selective than tamoxifen citrate: 20 fold
[14]; against ER+ cell lines
  times better activity than compound 2a and tamoxifen: 10 times
